How the values were obtained:
[1] = tested on: Pepper (RNA, aptamer) GGCGCACUGGCGCUGCGCCUUCGGGCGCCAAUCGUAGCGUGUCGGCGCC; experiment: AE-HPLC of covalent adduct; conditions: K+ 150 mM, Mg2+ 2 mM, 50 mM MES pH 6.0, 15% DMSO, 37 °C, 50 µM ligand
[2] = tested on: 155 nt (Szostak) self-biotinylating ribozyme (RNA, ribozyme) GGAGGCACCACGGCUGGAUCCGGUUUAUUAUCAUGAGCCCGACUCGGGCAGCACUGUACAUAAGCUCGGAUGCCAUAGUUUAGACACUAUGGACGUAAAGCCCAUGCUAGGCAAAGACAUUGACUGCAUGAGCGCCGCCUUGGUCAUUAGGAUCG; experiment: PAGE, streptavidin blot of covalent adduct; conditions: K+ 100 mM, Mg2+ 5 mM, 50 mM HEPES pH 7.4, 37 °C, 1 mM or 50 µM ligand
[3] = tested on: Tt C15U preQ1 RNA aptamer (RNA, riboswitch) CUGGGUCGCAGUAAUCCCAGUUAACAAAACAAG; experiment: AE-HPLC of covalent adduct; conditions: K+ 100 mM, Mg2+ 2 mM, 50 mM MES pH 6.0, 37 °C, 48 h, 125 µM ligand
[4] = tested on: Pepper (RNA, aptamer) GGCGCACUGGCGCUGCGCCUUCGGGCGCCAAUCGUAGCGUGUCGGCGCC; experiment: fluorescence emission; conditions: K+ 100 mM, Mg2+ 2 mM; 50 mM MES pH 6.0; 0.5 µM RNA, 0.5 µM HBC; noncovalent
[5] = tested on: Pepper (RNA, aptamer) GGCGCACUGGCGCUGCGCCUUCGGGCGCCAAUCGUAGCGUGUCGGCGCC; experiment: AE-HPLC, FT-ICR mass spectrometry of covalent adduct; conditions: K+ 150 mM, Mg2+ 2 mM; covalent at G41; 50 mM MES pH 6.0, 37 °C; no crosslinking without Mg2+
[6] = tested on: 58 nt (Liu) self-biotinylating ribozyme (RNA, ribozyme) GGCCGCUCCAGAAGAGGGCCCCCUUGCCCGUUAUCGGGGGCUAGGCUCGAUGUCGGCC; experiment: PAGE, streptavidin blot of covalent adduct; conditions: K+ 100 mM, Mg2+ 5 mM, 50 mM HEPES pH 7.4, 37 °C, 1 mM ligand, 5 h
[7] = tested on: 58 nt (Liu) self-biotinylating ribozyme (RNA, ribozyme) GGCCGCUCCAGAAGAGGGCCCCCUUGCCCGUUAUCGGGGGCUAGGCUCGAUGUCGGCC; experiment: RP-HPLC of covalent adduct; conditions: K+ 100 mM, Mg2+ 5 mM, 50 mM HEPES pH 7.4, 37 °C, 2.5 mM ligand
[8] = tested on: Tt wt preQ1 RNA aptamer (RNA, riboswitch) CUGGGUCGCAGUAACCCCAGUUAACAAAACAAG; experiment: AE-HPLC alkylation kinetics, Michaelis-Menten fit; conditions: K+ (KCl); covalent; apparent; MES pH 6.0, 37 °C
[9] = tested on: Pepper (RNA, aptamer) GGCGCACUGGCGCUGCGCCUUCGGGCGCCAAUCGUAGCGUGUCGGCGCC; experiment: covalent adduct formation, fluorescence; conditions: K+, Mg2+

CN(CCCBr)c1ccc(/C=C(\C#N)c2ccc(C#N)cc2)cc1
binding [1]: yes

O=C(CI)NCCNC(=O)CCCC[C@@H]1SC[C@@H]2NC(=O)N[C@@H]21
binding [2]: yes

Nc1nc2[nH]cc(CNCCCBr)c2c(=O)[nH]1
binding [3]: yes

CN(CCO)c1ccc(/C=C(\C#N)c2ccc(C#N)cc2)cc1
binding [4]: yes

CN(CCCOS(C)(=O)=O)c1ccc(/C=C(\C#N)c2ccc(C#N)cc2)cc1
binding [5]: yes

O=C1N[C@H]2[C@H](CS[C@H]2CCCCC(=O)OCCOCCCCBr)N1
binding [6]: yes | binding [7]: yes

Nc1nc(N)c2c(CNCCCBr)c[nH]c2n1
KM [8]: 0.162 ± 0.016 µM

C=Cc1ccc(/C(C#N)=C/c2ccc(N(C)CCCOS(C)(=O)=O)cc2)cc1
binding [9]: yes

Source: article PMC12122380 (2025)
